Experimental data reported in the NIST ThermoML archive (doi:10.1016/j.jct.2010.06.008).

Experiment: xn = mol fraction of the nth substance listed
Settings: 101 kPa, Liquid; for speed of sound: Sing-around technique in a fixed-path interferometer; for mass density: Vibrating tube method

CCC(C)Cl (stereo unspecified) [2-chlorobutane] + CCCCCC
Settings	mass density, 283.15 K [kg/m3]	mass density, 298.15 K [kg/m3]	mass density, 313.15 K [kg/m3]	speed of sound, 283.15 K [m/s]	speed of sound, 298.15 K [m/s]	speed of sound, 313.15 K [m/s]
x2 = 0	884.34	867.474	850.266	1127.7	1066.2	1005.3
x2 = 0.0509	870.642	853.976	836.967	1126.4	1064.5	1003.3
x2 = 0.1002	857.772	841.229	824.438	1125.2	1063.1	1001.6
x2 = 0.1802	837.449	821.198	804.693	1124	1061.4	999.26
x2 = 0.3029	807.817	791.981	775.929	1123.1	1059.7	996.75
x2 = 0.4045	784.524	769.021	753.339	1123.4	1059.3	995.71
x2 = 0.4991	763.875	748.682	733.339	1124.5	1059.8	995.56
x2 = 0.5974	743.353	728.495	713.496	1126.5	1061.1	996.3
x2 = 0.6992	723.059	708.519	693.898	1129.5	1063.4	998
x2 = 0.7996	704.031	689.807	675.523	1133.3	1066.8	1000.8
x2 = 0.8981	686.218	672.305	658.349	1138.3	1071.1	1004.5
x2 = 0.9477	677.555	663.793	650.005	1141.4	1073.7	1006.9

CCC(C)Cl (stereo unspecified) [2-chlorobutane] + CCCCCCC
mass density [kg/m3]
Settings	283.15 K	298.15 K	313.15 K
x2 = 0	884.34	867.474	850.266
x2 = 0.0506	870.755	854.132	837.236
x2 = 0.0989	858.319	841.994	825.335
x2 = 0.2012	833.412	817.61	801.474
x2 = 0.3016	810.786	795.463	779.843
x2 = 0.3997	790.254	775.401	760.214
x2 = 0.4984	771.15	756.698	741.962
x2 = 0.5994	752.976	738.95	724.63
x2 = 0.6994	736.272	722.581	708.679
x2 = 0.7996	720.631	707.328	693.773
x2 = 0.9006	705.927	692.97	679.768
x2 = 0.9503	699.08	686.282	673.245

CCCCCCC [heptane] + CC(C)(C)Cl
x1 = 1
Settings	mass density [kg/m3]	speed of sound [m/s]
283.15 K	692.422	1195.7
298.15 K	679.783	1131
313.15 K	666.908	1067.2

CCCCCCC [heptane] + CC(C)CCl
x1 = 1
Settings	mass density [kg/m3]	speed of sound [m/s]
283.15 K	692.422	1195.7
298.15 K	679.783	1131
313.15 K	666.908	1067.2

CCCCCCC [heptane] + CCC(C)Cl
Settings	mass density, 283.15 K [kg/m3]	mass density, 298.15 K [kg/m3]	mass density, 313.15 K [kg/m3]	speed of sound, 313.15 K [m/s]
x1 = 1	692.422	679.783	666.908	–
x2 = 0	–	–	–	1005.3

CCCCCCC [heptane] + CCCCCl
x1 = 1
Settings	mass density [kg/m3]
283.15 K	692.422
298.15 K	679.783
313.15 K	666.908

CCCCCC [hexane] + CC(C)(C)Cl
x1 = 1
Settings	mass density [kg/m3]	speed of sound [m/s]
283.15 K	668.609	1145.1
298.15 K	654.96	1077
313.15 K	641.39	1009.9

CCCCCC [hexane] + CC(C)CCl
x1 = 1
Settings	mass density [kg/m3]	speed of sound [m/s]
283.15 K	668.609	1145.1
298.15 K	654.96	1077
313.15 K	641.39	1009.9

CCCCCC [hexane] + CCC(C)Cl
x1 = 1
Settings	mass density [kg/m3]	speed of sound [m/s]
283.15 K	668.609	1145.1
298.15 K	654.96	1077
313.15 K	641.39	1009.9

CCCCCC [hexane] + CCCCCl
x1 = 1
Settings	mass density [kg/m3]	speed of sound [m/s]
283.15 K	668.609	1145.1
298.15 K	654.96	1077
313.15 K	641.39	1009.9
